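Briefly, cells in 96-well plates were exposed to five compound concentrations for 48 h, and endpoints were estimated by linear interpolation. TGI: total growth inhibition.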
Legend:
Test in all cases: NCI anticancer screen, dose series, 48 h
LOX IMVI melanoma = system: LOX IMVI melanoma
UACC-62 melanoma = system: UACC-62 melanoma
786-0 renal = system: 786-0 renal
HOP-92 NSCLC = system: HOP-92 NSCLC
M14 melanoma = system: M14 melanoma
HCC-2998 colon = system: HCC-2998 colon
MDA-MB-231 breast = system: MDA-MB-231 breast
SK-OV-3 ovarian = system: SK-OV-3 ovarian
HOP-18 NSCLC = system: HOP-18 NSCLC
U251 CNS = system: U251 CNS
DLD-1 colon = system: DLD-1 colon
HS 578T breast = system: HS 578T breast
SR leukemia = system: SR leukemia
IGROV1 ovarian = system: IGROV1 ovarian
SK-MEL-2 melanoma = system: SK-MEL-2 melanoma
SK-MEL-28 melanoma = system: SK-MEL-28 melanoma
SNB-75 CNS = system: SNB-75 CNS
OVCAR-5 ovarian = system: OVCAR-5 ovarian
SK-MEL-5 melanoma = system: SK-MEL-5 melanoma
M19-MEL melanoma = system: M19-MEL melanoma
RXF-631 renal = system: RXF-631 renal
TK-10 renal = system: TK-10 renal
RPMI-8226 leukemia = system: RPMI-8226 leukemia
MCF7 breast = system: MCF7 breast
LXFL 529 NSCLC = system: LXFL 529 NSCLC
SF-268 CNS = system: SF-268 CNS
OVCAR-3 ovarian = system: OVCAR-3 ovarian
MDA-N = system: MDA-N
COLO 205 colon = system: COLO 205 colon
SNB-78 CNS = system: SNB-78 CNS
A498 renal = system: A498 renal
EKVX NSCLC = system: EKVX NSCLC
CAKI-1 renal = system: CAKI-1 renal
NCI/ADR-RES ovarian = system: NCI/ADR-RES ovarian
XF 498 CNS = system: XF 498 CNS
MDA-MB-435 = system: MDA-MB-435
MOLT-4 leukemia = system: MOLT-4 leukemia
NCI-H460 lung = system: NCI-H460 lung
HCT-116 colon = system: HCT-116 colon
KM20L2 colon = system: KM20L2 colon
NCI-H23 lung = system: NCI-H23 lung
SF-295 CNS = system: SF-295 CNS
UACC-257 melanoma = system: UACC-257 melanoma
OVCAR-8 ovarian = system: OVCAR-8 ovarian
ACHN renal = system: ACHN renal
UO-31 renal = system: UO-31 renal
DU-145 prostate = system: DU-145 prostate
SN12C renal = system: SN12C renal
NCI-H522 lung = system: NCI-H522 lung
SF-539 CNS = system: SF-539 CNS
OVCAR-4 ovarian = system: OVCAR-4 ovarian
DMS 114 small cell lung = system: DMS 114 small cell lung
NCI-H226 lung = system: NCI-H226 lung
SNB-19 CNS = system: SNB-19 CNS
K-562 leukemia = system: K-562 leukemia
PC-3 prostate = system: PC-3 prostate
HT29 colon = system: HT29 colon
SW-620 colon = system: SW-620 colon
MALME-3M melanoma = system: MALME-3M melanoma
CCRF-CEM leukemia = system: CCRF-CEM leukemia
KM12 colon = system: KM12 colon
A549 NSCLC = system: A549 NSCLC
HCT-15 colon = system: HCT-15 colon
BT-549 breast = system: BT-549 breast
HOP-62 NSCLC = system: HOP-62 NSCLC
HL-60(TB) leukemia = system: HL-60(TB) leukemia
RXF 393 renal = system: RXF 393 renal
T-47D breast = system: T-47D breast
DMS 273 small cell lung = system: DMS 273 small cell lung

CCN(CC)c1ccc(/C=C2/C[N+](C)(C)C/C(=C/c3ccc(N(CC)CC)cc3)C2=O)cc1
TGI (LOX IMVI melanoma): 6.16 µM | TGI (UACC-62 melanoma): 4.84 µM | TGI (786-0 renal): 13.6 µM | TGI (HOP-92 NSCLC): 4.8 µM | TGI (M14 melanoma): 7.07 µM | TGI (HCC-2998 colon): 6.25 µM | TGI (MDA-MB-231 breast): 5.87 µM | TGI (SK-OV-3 ovarian): > 78.5 µM | TGI (HOP-18 NSCLC): 25 µM | TGI (U251 CNS): 9.24 µM | TGI (DLD-1 colon): > 100 µM | TGI (HS 578T breast): 11.2 µM | TGI (SR leukemia): 3.52 µM | TGI (IGROV1 ovarian): 6.57 µM | TGI (SK-MEL-2 melanoma): 3.92 µM | TGI (SK-MEL-28 melanoma): 4.09 µM | TGI (SNB-75 CNS): 8.88 µM | TGI (OVCAR-5 ovarian): 50.4 µM | TGI (SK-MEL-5 melanoma): 3.62 µM | TGI (M19-MEL melanoma): 2.84 µM | TGI (RXF-631 renal): > 100 µM | TGI (TK-10 renal): 61.8 µM | TGI (RPMI-8226 leukemia): 1.24 µM | TGI (MCF7 breast): 6.04 µM | TGI (LXFL 529 NSCLC): 2.81 µM | TGI (SF-268 CNS): 11.2 µM | TGI (OVCAR-3 ovarian): 7.31 µM | TGI (MDA-N): 3.56 µM | TGI (COLO 205 colon): 2.69 µM | TGI (SNB-78 CNS): 9.62 µM | TGI (A498 renal): > 42.2 µM | TGI (EKVX NSCLC): 75.7 µM | TGI (CAKI-1 renal): > 100 µM | TGI (NCI/ADR-RES ovarian): > 100 µM | TGI (XF 498 CNS): 6.59 µM | TGI (MDA-MB-435): 3.69 µM | TGI (MOLT-4 leukemia): 4.83 µM | TGI (NCI-H460 lung): 15 µM | TGI (HCT-116 colon): 7.77 µM | TGI (KM20L2 colon): 12.9 µM | TGI (NCI-H23 lung): 10.3 µM | TGI (SF-295 CNS): > 90.6 µM | TGI (UACC-257 melanoma): 6 µM | TGI (OVCAR-8 ovarian): 14.7 µM | TGI (ACHN renal): > 100 µM | TGI (UO-31 renal): > 100 µM | TGI (DU-145 prostate): > 50.6 µM | TGI (SN12C renal): 16.4 µM | TGI (NCI-H522 lung): 7.74 µM | TGI (SF-539 CNS): 6.19 µM | TGI (OVCAR-4 ovarian): 13.8 µM | TGI (DMS 114 small cell lung): 3.38 µM | TGI (NCI-H226 lung): 17.2 µM | TGI (SNB-19 CNS): 19.4 µM | TGI (K-562 leukemia): 7.91 µM | TGI (PC-3 prostate): 35.7 µM | TGI (HT29 colon): 5.2 µM | TGI (SW-620 colon): 13.5 µM | TGI (MALME-3M melanoma): 4.38 µM | TGI (CCRF-CEM leukemia): 3.42 µM | TGI (KM12 colon): 2.91 µM | TGI (A549 NSCLC): > 100 µM | TGI (HCT-15 colon): > 100 µM | TGI (BT-549 breast): 3.43 µM | TGI (HOP-62 NSCLC): 40.7 µM | TGI (HL-60(TB) leukemia): 2.16 µM | TGI (RXF 393 renal): 10.3 µM | TGI (T-47D breast): 11.3 µM

C/C(=N\NC(N)=S)c1cc(C)c(C)cc1C
TGI (LOX IMVI melanoma): > 100 µM | TGI (UACC-62 melanoma): > 100 µM | TGI (786-0 renal): > 100 µM | TGI (HOP-92 NSCLC): > 100 µM | TGI (M14 melanoma): > 100 µM | TGI (HCC-2998 colon): > 100 µM | TGI (SK-OV-3 ovarian): > 100 µM | TGI (HOP-18 NSCLC): > 100 µM | TGI (U251 CNS): > 100 µM | TGI (DLD-1 colon): > 100 µM | TGI (SR leukemia): > 100 µM | TGI (IGROV1 ovarian): > 100 µM | TGI (SK-MEL-2 melanoma): > 100 µM | TGI (SK-MEL-28 melanoma): > 100 µM | TGI (SNB-75 CNS): 85.3 µM | TGI (OVCAR-5 ovarian): 46.5 µM | TGI (SK-MEL-5 melanoma): > 100 µM | TGI (M19-MEL melanoma): 74.2 µM | TGI (RXF-631 renal): > 100 µM | TGI (TK-10 renal): > 100 µM | TGI (RPMI-8226 leukemia): > 100 µM | TGI (DMS 273 small cell lung): > 100 µM | TGI (LXFL 529 NSCLC): > 100 µM | TGI (SF-268 CNS): > 100 µM | TGI (OVCAR-3 ovarian): 60.3 µM | TGI (COLO 205 colon): > 100 µM | TGI (SNB-78 CNS): > 100 µM | TGI (A498 renal): > 100 µM | TGI (EKVX NSCLC): > 100 µM | TGI (CAKI-1 renal): > 100 µM | TGI (XF 498 CNS): 50.3 µM | TGI (MOLT-4 leukemia): 84.5 µM | TGI (NCI-H460 lung): > 100 µM | TGI (HCT-116 colon): > 100 µM | TGI (KM20L2 colon): > 100 µM | TGI (NCI-H23 lung): > 100 µM | TGI (SF-295 CNS): > 100 µM | TGI (UACC-257 melanoma): > 100 µM | TGI (OVCAR-8 ovarian): > 100 µM | TGI (ACHN renal): > 100 µM | TGI (UO-31 renal): > 100 µM | TGI (SN12C renal): > 100 µM | TGI (SF-539 CNS): > 100 µM | TGI (OVCAR-4 ovarian): > 100 µM | TGI (DMS 114 small cell lung): 42.3 µM | TGI (NCI-H226 lung): > 100 µM | TGI (K-562 leukemia): > 100 µM | TGI (HT29 colon): 47.6 µM | TGI (SW-620 colon): > 100 µM | TGI (MALME-3M melanoma): 92 µM | TGI (CCRF-CEM leukemia): > 100 µM | TGI (KM12 colon): 71.2 µM | TGI (A549 NSCLC): > 100 µM | TGI (HCT-15 colon): > 100 µM | TGI (HOP-62 NSCLC): > 100 µM | TGI (HL-60(TB) leukemia): 65.5 µM | TGI (RXF 393 renal): 97.2 µM

N#CC(C(=O)/C(=N/NC(=O)c1ccccc1O)C(C#N)c1ccccc1)c1ccccc1 (stereo not drawn)
TGI (LOX IMVI melanoma): > 100 µM | TGI (UACC-62 melanoma): > 100 µM | TGI (786-0 renal): > 100 µM | TGI (HOP-92 NSCLC): > 100 µM | TGI (M14 melanoma): > 100 µM | TGI (HCC-2998 colon): > 100 µM | TGI (SK-OV-3 ovarian): > 100 µM | TGI (HOP-18 NSCLC): > 100 µM | TGI (U251 CNS): > 100 µM | TGI (DLD-1 colon): > 100 µM | TGI (IGROV1 ovarian): > 100 µM | TGI (SK-MEL-2 melanoma): > 100 µM | TGI (SK-MEL-28 melanoma): > 100 µM | TGI (SNB-75 CNS): > 100 µM | TGI (M19-MEL melanoma): > 100 µM | TGI (RXF-631 renal): > 100 µM | TGI (TK-10 renal): > 100 µM | TGI (RPMI-8226 leukemia): > 100 µM | TGI (DMS 273 small cell lung): > 100 µM | TGI (LXFL 529 NSCLC): > 100 µM | TGI (SF-268 CNS): > 100 µM | TGI (OVCAR-3 ovarian): > 100 µM | TGI (COLO 205 colon): > 100 µM | TGI (SNB-78 CNS): > 100 µM | TGI (A498 renal): > 100 µM | TGI (EKVX NSCLC): > 100 µM | TGI (XF 498 CNS): > 100 µM | TGI (NCI-H460 lung): > 100 µM | TGI (HCT-116 colon): > 100 µM | TGI (KM20L2 colon): > 100 µM | TGI (NCI-H23 lung): > 100 µM | TGI (SF-295 CNS): > 100 µM | TGI (UACC-257 melanoma): > 100 µM | TGI (OVCAR-8 ovarian): > 100 µM | TGI (ACHN renal): > 100 µM | TGI (UO-31 renal): > 100 µM | TGI (SN12C renal): > 100 µM | TGI (SF-539 CNS): > 100 µM | TGI (OVCAR-4 ovarian): > 100 µM | TGI (DMS 114 small cell lung): > 100 µM | TGI (NCI-H226 lung): > 100 µM | TGI (HT29 colon): > 100 µM | TGI (MALME-3M melanoma): > 100 µM | TGI (KM12 colon): > 100 µM | TGI (A549 NSCLC): > 100 µM | TGI (HCT-15 colon): > 100 µM | TGI (HOP-62 NSCLC): > 100 µM | TGI (RXF 393 renal): > 100 µM
